Consider 1 compound from patent US20240216410A1, “METHODS AND COMPOSITIONS FOR TREATING CANCER THERAPY-INDUCED NEUTROPENIC FEVER AND/OR GVHD” (BOARD OF REGENTS, THE UNIVERSITY OF TEXAS SYSTEM, priority 2021, published 2024).

The structures appear in SMILES notation.

A short description of series [1]: Meropenem concentration in stool of mice given meropenem in drinking water. Type of series: in vivo. Particulars: mouse, oral; 0.625 g/L in drinking water; normal SPF mice; stool 48 hours after starting; median±SE; read-out: meropenem concentration in fecal samples. The method, then: (§1) To further explore a potential causal relationship between meropenem and intestinal GVHD, the effects of meropenem on GVHD in a mouse model of allo-HSCT were examined. A method of administering meropenem to mice was first developed that would better mimic the effects of meropenem on the intestinal microbiome of patients, which is typically given every 8 hours intravenously. Previously, antibiotics were administered subcutaneously to mice (25), and meropenem concentrations were quantified in the cecal lumen of mice 4, 8, 24, 48 and 96 hours after subcutaneous injection. […] Next, drinking water was evaluated as a means of continuously administering meropenem to mice, using bacterial density quantified by 16S ribosomal RNA (16S rRNA) gene quantitative PCR (qPCR) to gauge reductions of the intestinal microbiota.
Murine isolates of Enterococcus faecalis (MDA-JAX EF001), Clostridium disporicum (MDA-JAX CD001), Clostridium saudiense (MDA-JAX CS001), and Lachnospiraceae unclassified (MDA-JAX LS001) were also tested.
Antibiotics administration.

A short description of series [2]: Meropenem concentrations in cecal contents after subcutaneous injection (LC-MS). The format is in vivo, mice. Particulars: 4, 8, 24, 48 and 96 hours. The method, then:
as §1
Pharmacokinetics of meropenem by Triple Quadruple liquid chromatography-mass spectrometry (LC-MS). C57BL/6 mice were treated with 10 mg of meropenem by subcutaneously injection. Cecal contents were collected prior to, 4, 8, 24, 48, and 96 hours after meropenem injection. To determine the relative abundance of meropenem in mouse cecum samples, extracts were prepared and analyzed with a THERMO […]™ TSQ […]™ triple quadruple mass spectrometer coupled with a DIONEX™ ULTIMATE™ 3000 HPLC system. […]

Series [3] is classed as in vivo, mice. The method, then: The mucus layer provides a critical contribution to the intestinal barrier by excluding bacteria from the intestinal lumen adjacent to the intestinal epithelium. […] Translocating bacteria included Enterococcus faecalis, Enterococcus gallinarum, Lactobacillus johnsonii, and BT (FIGS. 17D-17E).
Immunostaining and fluorescence in situ hybridization. […] Paraffin-embedded sections were dewaxed and hydrated. Sections were incubated with 1 μg Alexa Fluor 594-conjugated EUB338 (5′-[…]-3′; SEQ ID NO:1) for detection of all bacteria in 200 μL of hybridization buffer (750 mM NaCl, 100 mM Tris-HCl (pH 7.4), 5 mM EDTA, 0.01% BSA, 10% dextran sulfate) at 40° C. for 16 hours. Sections were rinsed in wash buffer (50 mM NaCl, 4 mM Tris-HCl (pH 7.4), 0.02 mM EDTA), washed at 45° ° C. for 20 min, stained with anti-Muc2 antibody [C3] (GTX100664, GeneTex) and counterstained with DAPI (Vector Laboratories). Photographs of sections were obtained using a fluorescent microscope (Nikon NIS Elements, Advanced Research version 4.20).
Microbiologic analysis of bacterial translocation. Mesenteric lymph nodes (MLNs) were harvested from mice and homogenized in PBS and cultured anaerobically on BHI plates containing yeast extract and 5% sterilized rumen fluid (THERMO FISHER […]™)) and Columbia blood agar plates (BD) for 4 days at 37° ° C. Colony-forming units (CFUs) were counted and adjusted per organ. […]

The subject of series [4] is neutrophils and dendritic cells in the colon. Nature of the series: Murine GVHD model: colonic infiltration by neutrophils and dendritic cells. Type of series: in vivo. Particulars: meropenem-treated mice with GVHD. An excerpt:
Altogether, these findings indicate that, in some cases, meropenem treatment leads to compromise of the colonic mucus layer, increased bacterial translocation and an aggravated inflammatory response.
Histological and immunohistochemistry analysis. […] Pathology scores were quantified by a blinded pathologist. […] Sections were imaged using an APERIO® AT2.
Lamina propria hematopoietic cell dissociation. Murine colons were isolated, dissected longitudinally and then on a shaker in 2% fetal bovine serum in PBS with 1 mM DL-dithiothreitol (Bioworld) at 37 °C for 20 min and subsequently incubated with 1.3 mM EDTA at 37° C. for 40 min. They were rinsed twice and digested with 0.3 mg/ml of type IV collagenase (C5138, SIGMA-ALDRICH®) at 37 °C for 45 min, homogenized, filtered, and washed.
Flow cytometric analysis. Monoclonal antibodies conjugated with fluorescein isothiocynate, phycoerythrin, phycoerythrin-Cy7, peridinin-chlorophyll protein complexes, allophycocyanin, or allophycocyanin-Cy7 were purchased from Tonbo Biosciences (San Diego, CA), EBIOSCIENCE™ (San Diego, CA), or BIOLEGEND® (San Diego, CA.). […] In flow cytometric analysis, at least 100,000 live samples were analyzed using BD LSRFORTESSA™ X-20 (BD Biosciences) and FlowJo software (Trec Star, OR). […]

With `C[C@@H](O)[C@H]1C(=O)N2C(C(=O)O)=C(S[C@@H]3CN[C@H](C(=O)N(C)C)C3)[C@H](C)[C@H]12` [meropenem], the concentration at 48 h in series [1] is 110 ± 70 ng/g. In addition, the “meropenem concentrations in the cecum” value in series [2] is recorded as “increase in meropenem concentrations in the cecum at 4 hours after injection, which rapidly declined thereafter”. Besides, in series [3] (day 18), the “bacterial loads cultivated from MLNs” value is recorded as “higher bacterial loads”. In addition, the “bacteria in mucus layer and lamina propria (16S FISH)” value in series [3] (mice with GVHD) is “dissemination of bacteria into the mucus layer and lamina propria of the colon”. Moreover, the “colonic tissue infiltration by neutrophils and dendritic cells” value in series [4] was “marked colonic tissue infiltration by neutrophils and dendritic cells”.
